We go through 14 molecules from patent US11530244B2, “Cyclic polypeptides for PCSK9 inhibition” (priority 2018, dated 2022).

One assay deals with PCSK9 (Homo sapiens (Human), UniProt Q8NBP7). Nature of the assay: PCSK9 Alexa FRET Standard assay (displacement of AlexaFluor647 tagged cyclic peptide Reagent A). In kind it is binding. The note with it: PCSK9 Alexa FRET Standard assay, 0.5 nM PCSK9, 20 nM AF cyclic peptide Reagent A; read-out: IC50. In outline: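 TR-FRET displacement: 0.5 nM biotinylated PCSK9 with 1.25 nM Strep-Eu and 20 nM AlexaFluor-tagged cyclic peptide (final) in 50 mM HEPES pH 7.4, 0.15 M NaCl, 5 mM CaCl2, 0.01% BSA, 0.01% P20, ≥2 h at room temperature. IC50 from sigmoidal fit, converted to Ki via peptide KD; falling Eu counts flagged false positives.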
Chain of PCSK9 (Q8NBP7 153-692): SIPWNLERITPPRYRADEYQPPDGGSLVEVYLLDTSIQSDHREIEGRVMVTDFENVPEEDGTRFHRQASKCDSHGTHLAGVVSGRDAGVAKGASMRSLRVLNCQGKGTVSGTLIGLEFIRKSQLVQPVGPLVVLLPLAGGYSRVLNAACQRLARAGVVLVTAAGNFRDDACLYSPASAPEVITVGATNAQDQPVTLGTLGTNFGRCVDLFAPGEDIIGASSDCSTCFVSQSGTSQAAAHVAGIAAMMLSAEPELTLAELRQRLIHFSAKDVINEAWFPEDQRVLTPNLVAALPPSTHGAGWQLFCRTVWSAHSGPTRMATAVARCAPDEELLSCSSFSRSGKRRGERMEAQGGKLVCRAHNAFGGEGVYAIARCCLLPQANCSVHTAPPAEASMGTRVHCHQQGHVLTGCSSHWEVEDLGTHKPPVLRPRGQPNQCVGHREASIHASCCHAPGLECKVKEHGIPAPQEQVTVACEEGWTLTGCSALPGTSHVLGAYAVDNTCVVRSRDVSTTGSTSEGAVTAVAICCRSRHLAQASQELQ

Assay [1] concerns the target human PCSK9 / human LDLR EGFa domain interaction (Homo sapiens (Human), UniProt Q8NBP7). Nature of the assay: TR-FRET assay of inhibition of the PCSK9-LDLR protein-protein interaction. It counts as binding. The settings on record: TR-FRET, 20 nM human PCSK9, 20 nM human LDLR EGFa domain, 2 hours room temperature; read-out: IC50. In outline:
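20 nM biotin-avitag PCSK9 + 20 nM His-LDLR EGFa; 5 nM Ulight-SA / 5 nM Eu-anti-His; 2 h RT; HEPES 50 mM, NaCl 150 mM, CaCl2 5 mM, 0.01% BSA, 0.01% P20. Half-maximal inhibition, 4-parameter fit.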
For orientation: In TR-FRET formats the signal depends on donor and acceptor labels being close together.

Starred links: 1 amine or outer side, 2 acyl side, 3 side chain; linkers in the order of their positions; H or OH if unused. Positions of bridges follow the written chain, without caps; N, C: chain ends. Non-standard residues stand in square brackets, D forms with d. Residues, ends and D or L forms follow the SMILES beside them. Phe(3-CH2NH2) = O=C([C@H](Cc1cccc(CN[*:3])c1)N[*:1])[*:2]; Pro(cis-4-Ph) = O=C(O)[C@@H]1C[C@H](c2ccccc2)CN1; Trp(5-F) = N[C@@H](Cc1c[nH]c2ccc(F)cc12)C(=O)O; X30 = COc1ccc(C[C@H](N[*:1])C(=O)[*:2])cc1Cl; Pro(trans-4-F) = O=C(O)[C@@H]1C[C@@H](F)CN1; Asp(3,3-Me2) = CC(C)(C(=O)O)[C@H](N)C(=O)O; X4 = O=C(CCSCc1cccc(CSCCN[*:1])c1)[*:2]; mXylylene = c1cc(C[*:1])cc(C[*:2])c1; d(aThr) = C[C@@H](O)[C@@H](N)C(=O)O; Val(3-OH) = CC(C)(O)[C@H](N)C(=O)O; X6 = O=C(Cc1ccc(CN[*:2])cc1)[*:1]; Aad = N[C@@H](CCCC(=O)O)C(=O)O; αMeP = C[C@@]1(C(=O)O)CCCN1; dDap = NC[C@@H](N)C(=O)O; Mpa = O=C(O)CCS

Chain of human PCSK9 / human LDLR EGFa domain interaction (Q8NBP7 153-692): as above
Chain of human PCSK9 / human LDLR EGFa domain interaction (Q8NBP7 31-152 partner): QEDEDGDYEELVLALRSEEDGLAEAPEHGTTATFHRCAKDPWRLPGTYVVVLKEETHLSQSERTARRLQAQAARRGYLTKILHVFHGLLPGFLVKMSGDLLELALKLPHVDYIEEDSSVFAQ

By IC50 is commonly meant the point on the concentration scale where inhibition reaches its midpoint. As for `C[C@H]1NC(=O)[C@H](CCCCN)NC(=O)CCSCc2cccc(c2)CSC[C@@H](C(N)=O)NC(=O)[C@]2(C)CCCN2C(=O)[C@H](Cc2ccc(O)cc2)NC(=O)[C@H](Cc2cnc[nH]2)NC(=O)[C@H](C(C)(C)C(=O)O)NC(=O)[C@H](Cc2c[nH]c3ccc(F)cc23)NC(=O)[C@H](Cc2c[nH]c3ccc(F)cc23)NC1=O` [Compound 361] ([Mpa]K[dA][Trp(5-F)][Trp(5-F)][Asp(3,3-Me2)]HY[αMeP]C-NH2; linker 1-10 via mXylylene), the figures for the IC50 (on PCSK9; in assay [1]) were 100 to 1000 nM and 0.1 to 100 nM, respectively.
For the molecule `CO[C@H](C)[C@@H]1NC(=O)[C@@H]2C[C@@H](F)CN2C(=O)[C@H](Cc2c[nH]c3ccc(F)cc23)NC(=O)[C@H](Cc2c[nH]c3ccc(F)cc23)NC(=O)CNC(=O)[C@H](CCCCN)NC(=O)CCSCc2cccc(c2)CSC[C@@H](C(N)=O)NC(=O)[C@]2(C)CCCN2C(=O)[C@H](Cc2ccc(O)cc2)NC1=O` [Compound 059] ([Mpa]KG[Trp(5-F)][Trp(5-F)][Pro(trans-4-F)]T(Me)Y[αMeP]C-NH2; linker 1-10 via mXylylene), the IC50 (at PCSK9; in assay [1]) was 100 to 1000 nM in each case.
As to `COc1ccc(C[C@@H]2NC(=O)[C@@H]3CC/C=C\CO[C@H]4C[C@@H](C(=O)N3)N(C4)C(=O)[C@H](Cc3c[nH]c4ccc(F)cc34)NC(=O)[C@H](Cc3c[nH]c4ccc(F)cc34)NC(=O)[C@@H](C)NC(=O)[C@H](CCCCN)NC(=O)CCSCc3cccc(c3)CSC[C@@H](C(N)=O)NC(=O)[C@]3(C)CCCN3C2=O)cc1` [Compound 509], the values for the IC50 (at PCSK9; in assay [1]) were 0.11 to 100 nM and 100 to 1000 nM, respectively.
With `CC(C)(O)[C@@H]1NC(=O)[C@@H]2CCCN2C(=O)[C@H](Cc2c[nH]c3ccc(F)cc23)NC(=O)[C@H](Cc2c[nH]c3ccc(F)cc23)NC(=O)CNC(=O)[C@H](CCCCN)NC(=O)CCSCc2cccc(c2)CSC[C@@H](C(N)=O)NC(=O)[C@]2(C)CCCN2C(=O)[C@H](Cc2ccc(O)cc2)NC1=O` [Compound 048] ([Mpa]KG[Trp(5-F)][Trp(5-F)]P[Val(3-OH)]Y[αMeP]C-NH2; linker 1-10 via mXylylene), the concentration for half-maximal inhibition (IC50) (on PCSK9; in assay [1]) was 100 to 1000 nM in each case.
As to `COc1ccc(C[C@@H]2NC(=O)[C@@H]3CCC/C=C\CO[C@H]4C[C@@H](C(=O)N3)N(C4)C(=O)[C@H](Cc3c[nH]c4ccc(F)cc34)NC(=O)[C@H](Cc3c[nH]c4ccc(F)cc34)NC(=O)[C@@H](C)NC(=O)CCCCCC(=O)NCc3ccc(cc3)C[C@@H](C(N)=O)NC(=O)[C@]3(C)CCCN3C2=O)cc1` [Compound 512], the figures for the concentration for half-maximal inhibition (IC50) (at PCSK9; in assay [1]) were 0.11 to 100 nM and 0.1 to 100 nM, respectively.
Turning to `COc1ccc(C[C@@H]2NC(=O)[C@H](Cc3cnc[nH]3)NC(=O)[C@H](CC(=O)O)NC(=O)[C@H](Cc3c[nH]c4ccc(F)cc34)NC(=O)[C@H](Cc3c[nH]c4ccc(F)cc34)NC(=O)[C@@H](C)NC(=O)[C@H](NC(C)=O)Cc3cn(nn3)-c3ccc(cc3)C[C@@H](C(N)=O)NC(=O)[C@]3(C)CCCN3C2=O)cc1` [Compound 381], the IC50 on PCSK9 is 1000 to 12100 nM; in assay [1], 100 to 1000 nM.
Take `COc1ccc(C[C@@H]2NC(=O)[C@@H]([C@@H](C)O)NC(=O)[C@H](CCCC(=O)O)NC(=O)[C@H](Cc3c[nH]c4ccc(F)cc34)NC(=O)[C@H](Cc3cccc(CN)c3)NC(=O)[C@@H](C)NC(=O)[C@H](C)NC(=O)CCSCc3cccc(c3)CSCCNC(=O)[C@]3(C)CCCN3C2=O)cc1` [Compound 346] (cyclo(A[dA][Phe(3-CH2NH2)][Trp(5-F)][Aad][d(aThr)]Y(Me)[αMeP][X4])): the figures for the IC50 (on PCSK9; in assay [1]) were 1000 to 12100 nM and 0.1 to 100 nM, respectively.
For `COc1ccc(C[C@@H]2NC(=O)[C@H](Cc3cnc[nH]3)NC(=O)[C@H](CC(=O)O)NC(=O)[C@H](Cc3c[nH]c4ccc(F)cc34)NC(=O)[C@H](Cc3c[nH]c4ccc(F)cc34)NC(=O)[C@@H](C)NC(=O)[C@H](NC(C)=O)CCCCNC(=O)Cc3ccc(cc3)CNC(=O)CCC[C@@H](C(N)=O)NC(=O)[C@]3(C)CCCN3C2=O)cc1` [Compound 523] (Ac-[dK][dA][Trp(5-F)][Trp(5-F)]DHY(Me)[αMeP][Aad]-NH2; linker 1-9 via X6), the IC50 at PCSK9 is 100 to 1000 nM; in assay [1] it was 0.1 to 100 nM.
On to `COc1ccc(C[C@@H]2NC(=O)[C@H](Cc3cnc[nH]3)NC(=O)[C@H](CC(=O)O)NC(=O)[C@H](Cc3c[nH]c4ccc(F)cc34)NC(=O)[C@H](Cc3c[nH]c4ccc(F)cc34)NC(=O)[C@H](C)NC(=O)[C@H](NC(C)=O)CCCc3cn(nn3)-c3ccc(cc3)C[C@@H](C(N)=O)NC(=O)[C@]3(C)CCCN3C2=O)cc1` [Compound 395], for which the IC50 (at PCSK9; in assay [1]) was 21000 to 50000 nM each time.
In the case of `COc1ccc(C[C@@H]2NC(=O)[C@H](Cc3cnc[nH]3)NC(=O)[C@H](CC(=O)O)NC(=O)[C@H](Cc3c[nH]c4ccc(F)cc34)NC(=O)[C@H](Cc3c[nH]c4ccc(F)cc34)NC(=O)[C@@H](C)NC(=O)[C@H](CCCCN)NC(=O)[C@@H](NC(C)=O)CCc3cn(nn3)-c3ccc(cc3)C[C@@H](C(N)=O)NC(=O)[C@]3(C)CCCN3C2=O)cc1` [Compound 371], the IC50 is 0.11 to 100 nM on PCSK9 and 0.1 to 100 nM in assay [1].
Take `NCCCC[C@@H]1NC(=O)CCSCc2cccc(c2)CSC[C@@H](C(N)=O)NC(=O)[C@@H]2C[C@H](c3ccccc3)CN2C(=O)[C@H](Cc2ccc(O)cc2)NC(=O)[C@H](Cc2cnc[nH]2)NC(=O)[C@H](CC(=O)O)NC(=O)[C@H](Cc2c[nH]c3ccc(F)cc23)NC(=O)[C@H](Cc2c[nH]c3ccc(F)cc23)NC(=O)CNC1=O` [Compound 329] ([Mpa]KG[Trp(5-F)][Trp(5-F)]DHY[Pro(cis-4-Ph)]C-NH2; linker 1-10 via mXylylene): the IC50 (at PCSK9; in assay [1]) was 100 to 1000 nM each time.
`C[C@@]12CCCN1C(=O)[C@H](Cc1ccc(O)cc1)NC(=O)[C@H](Cc1cnc[nH]1)NC(=O)[C@H](CC(=O)O)NC(=O)[C@H](Cc1c[nH]c3ccc(F)cc13)NC(=O)[C@H](Cc1c[nH]c3ccc(F)cc13)NC(=O)CNC(=O)[C@@H](CN)NC(=O)CCSCc1cccc(c1)CSC[C@@H](C(N)=O)NC2=O` [Compound 354] ([Mpa][dDap]G[Trp(5-F)][Trp(5-F)]DHY[αMeP]C-NH2; linker 1-10 via mXylylene): the IC50 (at PCSK9; in assay [1]) was 21000 to 50000 nM in each case.
Turning to `COc1ccc(C[C@@H]2NC(=O)[C@H](C)NC(=O)[C@@H]3CCCCNc4cc(ccn4)C[C@H](NC(=O)[C@@H](C)NC(=O)[C@H](C)NC(=O)CCSCc4cccc(c4)CSC[C@@H](C(N)=O)NC(=O)[C@]4(C)CCCN4C2=O)C(=O)N[C@@H](Cc2c[nH]c4ccc(F)cc24)C(=O)N3)cc1` [Compound 515], the figures for the IC50 (at PCSK9; in assay [1]) were 0.11 to 100 nM and 0.1 to 100 nM, respectively.
On to `COc1ccc(C[C@@H]2NC(=O)[C@H](Cc3c[nH]cn3)NC(=O)[C@H](CC(=O)O)NC(=O)[C@H](Cc3c[nH]c4ccc(F)cc34)NC(=O)[C@H](Cc3c[nH]c4ccc(F)cc34)NC(=O)[C@@H](C)NC(=O)[C@H](CCCCN)NC(=O)CCSCc3cccc(c3)CSCCNC(=O)[C@]3(C)CCCN3C2=O)cc1Cl` [Compound 386] (cyclo(DH[X30][αMeP][X4]K[dA][Trp(5-F)][Trp(5-F)])), for which the IC50 at PCSK9 was in the range of 100 to 1000 nM; in assay [1], 0.1 to 100 nM.
